This passage reports IC50 results from US11242350B2, “Spirocyclic ROR-gamma modulators” (Escalier Biosciences B.V., priority 2018, dated 2022).

Sequence of RORγt (P51449 269-508): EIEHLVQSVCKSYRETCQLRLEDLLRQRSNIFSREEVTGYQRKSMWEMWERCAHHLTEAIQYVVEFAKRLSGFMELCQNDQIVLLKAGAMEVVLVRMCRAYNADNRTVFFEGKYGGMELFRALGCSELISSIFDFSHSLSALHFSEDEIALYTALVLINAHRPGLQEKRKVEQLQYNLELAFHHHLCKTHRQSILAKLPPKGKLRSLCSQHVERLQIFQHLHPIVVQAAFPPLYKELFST

This test deals with RORγt (Homo sapiens (Human), UniProt P51449). Description: Gal4 ligand binding assay (RORγt Gal fusion luciferase reporter assay in HEK293T cells). As to conditions: RORγt inverse agonists in RORγt Gal fusion assay. The class given is cell-based. How it is done:
The N-terminal DNA binding domains (DBD) of the native RORγ and RORγt receptors have been substituted with that of the yeast GAL4-DBD and stably transfected in HEK293T cells that also stably express luciferase under the regulation by upstream activation sequence of yeast Gal4. These cells constitutively express high level RORγ activity due to binding of endogenous co-factors. Both agonist and inverse agonist activity can be detected. The assay was performed according to kit manufacturer's instructions as follows. 10 mM compound stocks were diluted serially 1:3 with DMSO and further diluted with provided media to generate 10 titration points from 60 μM to 3 nM. These treatment conditions were added to the plates as 2× media in 100 μL volume. Each plate includes a positive control with 10 titration points as well as 6 negative control wells with vehicle only, with final DMSO concentration of 0.2%. RORγ reporter cells were rapidly thawed and added to the plates in 100 μL volume. The plates were incubated for 24 h in a 37° C. humidified 5% CO2 incubator. Media was removed before the addition of room temperature luciferous detection substrate. After 5 minute incubation, relative light units (RLUs) were quantified using a plate reading luminometer. Data was normalized to […] with only 0.2%0DMSO. Before establishing internal controls, ursolic acid was used as control.
For orientation: A reporter such as luciferase makes a cellular process visible.
The molecule `CCc1cc(CN2CC3(C2)CN(S(C)(=O)=O)C3)c(F)cc1-c1ccc(C(O)(C(F)(F)F)C(F)(F)F)cc1F` [Example 82, 2-(2′-ethyl-2,5′-difluoro-4′-((6-(methylsulfonyl)-2,6-diazaspiro[3.3]heptan-2-yl)methyl)-[1,1′-biphenyl]-4-yl)-1,1,1,3,3,3-hexafluoropropan-2-ol] returned a 50% inhibitory concentration (IC50) of less than 0.05 µM. The same measure for `CCc1cc(CN2CC3(C2)CN(S(C)(=O)=O)C3)cc(F)c1-c1ccc(C(O)(C(F)(F)F)C(F)(F)F)cc1` [Example 35, 2-(2′-ethyl-6′-fluoro-4′-((6-(methylsulfonyl)-2,6-diazaspiro[3.3]heptan-2-yl)methyl)-[1,1′-biphenyl]-4-yl)-1,1,1,3,3,3-hexafluoropropan-2-ol]: less than 0.05 µM; for `CCc1cc(CN2CC3(CCN(S(C)(=O)=O)C3)C2)ccc1-c1ccc(C(O)(C(F)(F)F)C(F)(F)F)cc1` [Example 6, 2-(2′-ethyl-4′-((6-(methylsulfonyl)-2,6-diazaspiro[3.4]octan-2-yl)methyl)-[1,1′-biphenyl]-4-yl)-1,1,1,3,3,3-hexafluoropropan-2-ol]: 0.05 to 0.25 µM; for `CN(C)C(=O)c1cc(CN2CC3(C2)CN(S(C)(=O)=O)C3)ccc1-c1ccc(C(O)(C(F)(F)F)C(F)(F)F)cc1` [Example 55, 4′-(1,1,1,3,3,3-hexafluoro-2-hydroxypropan-2-yl)-N,N-dimethyl-4-((6-(methylsulfonyl)-2,6-diazaspiro[3.3]heptan-2-yl)methyl)-[1,1′-biphenyl]-2-carboxamide]: more than 0.25 µM. For the molecule `CCc1cc(CN2CCC(CS(C)(=O)=O)CC2)ccc1-c1ccc(C(O)(C(F)(F)F)C(F)(F)F)cc1` [Example 9, 2-(2′-ethyl-4′-((4-((methylsulfonyl)methyl)piperidin-1-yl)methyl)-[1,1′-biphenyl]-4-yl)-1,1,1,3,3,3-hexafluoropropan-2-ol], the IC50 was in the range of 0.05 to 0.25 µM.

The molecule `CCc1nc(CN2CC3(C2)CN(S(C)(=O)=O)C3)ccc1-c1ccc(C(O)(C(F)(F)F)C(F)(F)F)cc1C` [Example 73, 2-(4-(2-ethyl-6-((6-(methylsulfonyl)-2,6-diazaspiro[3.3]heptan-2-yl)methyl)pyridin-3-yl)-3-methylphenyl)-1,1,1,3,3,3-hexafluoropropan-2-ol] had a half-inhibitory concentration (IC50) of more than 0.25 µM.

Regarding `CCc1c(F)c(CN2CC3(C2)CN(S(C)(=O)=O)C3)cc(F)c1-c1ccc(C(O)(C(F)(F)F)C(F)(F)F)cc1Cl` [Example 72, 2-(2-chloro-2′-ethyl-3′,6′-difluoro-4′-((6-(methylsulfonyl)-2,6-diazaspiro[3.3]heptan-2-yl)methyl)-[1,1′-biphenyl]-4-yl)-1,1,1,3,3,3-hexafluoropropan-2-ol], the 50% inhibitory concentration (IC50) is less than 0.05 µM.

The molecule `CCc1cc(CN2CCC3(CC2)CN(S(C)(=O)=O)C3)ccc1-c1ccc(C(O)(C(F)(F)F)C(F)(F)F)cc1` [Example 4, 2-(2′-ethyl-4′-((2-(methylsulfonyl)-2,7-diazaspiro[3.5]nonan-7-yl)methyl)-[1,1′-biphenyl]-4-yl)-1,1,1,3,3,3-hexafluoropropan-2-ol] yielded an IC50 of less than 0.05 µM. Next, `CCc1cc(CN2CC3(C2)CS(=O)(=O)C3)ccc1-c1ccc(C(O)(C(F)(F)F)C(F)(F)F)cc1` [Example 26, 6-((2-ethyl-4′-(1,1,1,3,3,3-hexafluoro-2-hydroxypropan-2-yl)-[1,1′-biphenyl]-4-yl)methyl)-2-thia-6-azaspiro[3.3]heptane 2,2-dioxide]: 0.05 to 0.25 µM; `CCc1cc(CN2CC3(C2)CN(S(C)(=O)=O)C3)ccc1-c1ccc(C(O)(C(F)(F)F)C(F)(F)F)cc1C#N` [Example 65, 2′-ethyl-4-(1,1,1,3,3,3-hexafluoro-2-hydroxypropan-2-yl)-4′-((6-(methylsulfonyl)-2,6-diazaspiro[3.3]heptan-2-yl)methyl)-[1,1′-biphenyl]-2-carbonitrile]: less than 0.05 µM.

For orientation: IC50 means the midpoint of a concentration-inhibition curve. Read a low IC50 as greater potency.
